Test [1] deals with Liver Tumor Cell (Huh-7 cell strain). In words: MTT cell viability assay. It is filed as cell-based. The note with it: Homo sapiens.
The test system of test [2] is Normal Keratinocyte Cell (HaCaT cell strain). In words: MTT cell viability assay. Format: cell-based. To be noted: Homo sapiens.
Test [3] has as its system breast tumor cells MDA-MB-231. As to the kind of experiment: colony formation assay. Format: cell-based, human. The note with it: MDA-MB-231, 24 h treatment, FIG. 1B. The text has this: In order to know the effect of the compound II on the colony formation of the breast tumor cells MDA-MB-231, the cells were observed through a colony formation assay.
In test [4] the test system is MMP-9, MMP2 and uPA in breast tumor cells MDA-MB-231. As to the kind of experiment: Zymography enzyme activity assay. Format: cell-based, human. To be noted: MDA-MB-231, with dose increasing, FIG. 8B. The text has this: Referring to FIG. 8B, the Zymography enzyme activity assay was used to detect effect of the compound II in different doses on enzyme activities of the MMP-9, MMP2 and uPA in the breast tumor cells MDA-MB-231. Moreover, referring to FIG. 9, the Zymography enzyme activity assay was used to detect effect of the compound I on enzyme activities of the MMP-9 and MMP2 in the human normal breast cells MCF-10A stimulated by TNF-α/TGF-β. In the Zymography enzyme activity assay, the cells (1×10^6) were planted in a 6-well plate. The next day after the cells were adhered to the wall, the cells were cultured in a serum free DMEM culture medium at an atmosphere of 5% CO2 in an incubator at 37° C. for 24 h. The compound II in different doses were added into the DMEM culture medium. In other test groups, the compound I was added, TNF-α/TGF-β were added or the compound I and TNF-α/TGF-β were added into the DMEM culture medium, wherein the concentration of compound I and TNF-α/TGF-β were 2 mM and 10 ng/ml, respectively. The cells were cultured in the culture medium for 2 h and then washed with PBS. The cell culture medium was putted into a microcentrifuge tube and centrifuged for 10 min at 1500 rpm. The supernatant was taken to perform a protein gel electrophoresis (SDS-PAGE), so as to separate the proteins. […]

Test [5] relates to EMT-related proteins in human normal breast cells MCF-10A stimulated by TNF-α/TGF-β. In words: western blotting of EMT-related proteins. Format: cell-based. The procedure: FIG. 2A illustrates the expression results of EMT-related proteins in breast tumor cells MDA-MB-231 after the breast tumor cells MDA-MB-231 have been respectively cultured under compound II having concentrations of 0, 0.5, 1 and 2 μM for 24 h; and FIG. 2B illustrates the expression results of EMT-related proteins in breast tumor cells MCF-7 after the breast tumor cells MCF-7 have been respectively cultured under the compound II having concentrations of 0, 10, 15 and 20 μM for 24 h. FIG. 3A illustrates the western blotting results of EMT-related proteins in the breast tumor cells MDA-MB-468, where the breast tumor cells MDA-MB-468 are treated with the compound I having concentrations of 0, 0.5, 1 and 2 μM for 24 h, and FIG. 3B illustrates the western blotting results of EMT-related proteins in the breast tumor cells MDA-MB-435, where the breast tumor cells MDA-MB-435 are treated with the compound I having concentrations of 0, 2.5, 5 and 7.5 μM for 24 h. FIG. 4 illustrates the western blotting results of EMT-related proteins in the human normal breast cells MCF-10A stimulated by TNF-α/TGF-β, where the human normal breast cells MCF-10A are treated with the compound I having concentrations of 2 μM for 24 h. The human normal breast cells stimulated by TNF-α/TGF-β can cause TNF-α/TGF-β-induced EMT in the human normal breast cells MCF-10A. The steps of western blotting include: washing cells with PBS twice at 4° C.; adding a lysis buffer and rubbing the cells by a rubbr policeman so as to lyse cells; putting the lysed cell solution into a 1.5 ml microcentrifuge tube and shaking for 1 min; centrifuging at 12000 rpm for 10 min and taking the supernatant; measuring concentration of the protein through a Bio-Rad protein assay kit; and storing the remained extracted protein solution at −70° C.; taking 100 μg protein solution and adding a SDS/protein loading buffer having the same volume, where the SDS/protein loading buffer has a concentration two times larger than the protein solution; boiling the mixture of the protein solution and the SDS/protein loading buffer at 100° C. for 10 min; cooling and loading the protein samples in each hole of gel; adjusting the voltage to 100 V and running the protein samples on the gel until the tracking dye in the sample buffer reaches the bottom of the gel; and subsequently transferring the protein from the gel using electrophoresis. A PVDF membrane was soaked in methanol until the paper was totally wet. […] Then luminescence image equipment was used, where the PVDF was placed onto a black metal plate by a plastic pincer and the face including protein was upwards, a 1:1 mixed Chemiluminesent Substrate was added into the membrane and the exposure time depends on the fluorescence intensity of antibodies. […]

Setting [6] is: 2 μM with TNF-α/TGF-β 10 ng/ml, 24 h.

`COC1=C(OC)C(=O)C(C)=C(C)C1=O` [compound II]: the IC50 in test [1] worked out at 15.1 µM; in test [2], 35.2 µM. Besides, the “colony formation of breast tumor cells” value in test [3] is on record as “significantly inhibit colony formation”. For the same compound, the “enzyme activities of MMP-2, MMP-9 and uPA” value in test [4] is “decreased”.

Take `COC1=C(OC)C(=O)C(C)=CC1=O` [compound I]: in test [5] (setting [6]), the “protein expression amount of E-cadherin and occludin” value is listed as “also increased”; the “protein expression amount of vimentin and β-catenin” value is “recovered the increase caused by TNF-α/TGF-β stimulating”. In test [5] (compound alone 2 μM), the “protein expression amount of E-cadherin and occludin” value is “increased”; the “protein expression amount of vimentin and β-catenin” value is on record as “decreased”.

For the origin of these results see patent US20150087722A1, “TREATMENT FOR BREAST TUMOR CELL METASTASIS” (China Medical University, priority 2012, published 2015).
